This is an account of results in US20230312587A1, “PTERIDINONE COMPOUNDS AND USES THEREOF” (Vertex Pharmaceutical Incorporated, priority 2018, published 2023).

The test system of this assay is β-catenin-TCF-mediated reporter transcription activity in Colo 205 cells. Nature of the assay: Colo 205 reporter assay (TCF/LEF luciferase). The format is cell-based. Particulars: Homo sapiens, COLO 205, 5 h, Colo 205 TCF/LEF luciferase reporter, read-out: TCF reporter Colo205 IC50. In outline:
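Luciferase signal from a TCF/LEF-driven reporter, stably integrated in Colo 205 colon cancer cells, was measured 5 h after compound addition.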

Where [1] appears, read: five hours after addition of compound.

Read-outs that look alike come from different tables or passages of the source. Some results are limits rather than exact numbers.

On to `COc1ccc(O[C@H]2C[C@H](Nc3nc(C)c4c(n3)N(C)[C@@H](C)C(=O)N4C)C2)cc1F` [Compound 351, (7S)-2-((trans-3-(3-fluoro-4-methoxyphenoxy)cyclobutyl)amino)-4,5,7,8-tetramethyl-7,8-dihydropteridin-6(5H)-one], for which the IC50 (as a rule, the concentration at which inhibition is half-maximal) under setting [1] was 1 to 5 µM.

In the case of `C[C@H]1C(=O)Nc2cnc(N[C@H]3C[C@@H](Oc4ccc(F)cc4)C3)nc2N1C` [Compound 241, (7S)-2-((cis-3-(4-fluorophenoxy)cyclobutyl)amino)-7,8-dimethyl-7,8-dihydropteridin-6(5H)-one], under setting [1], the IC50 is not below 5 µM. As to `Cc1nc(NCc2cnn(-c3ccc(F)cc3F)c2)nc2c1NC(=O)[C@H](C)N2C` [Compound 98, (7S)-2-(((1-(2,4-difluorophenyl)-1H-pyrazol-4-yl)methyl)amino)-4,7,8-trimethyl-7,8-dihydropteridin-6(5H)-one], the IC50 under setting [1] was in the range of 1 to 5 µM. Still for that read-out and setting: next, `Cc1nc(NC2COC(Cn3nccc3C(F)(F)F)C2)nc2c1NC(=O)[C@H](C)N2C` (stereo partly drawn) [Compound 306, (7S)-4,7,8-trimethyl-2-((cis-5-((5-(trifluoromethyl)-1H-pyrazol-1-yl)methyl)-tetrahydrofuran-3-yl)amino)-7,8-dihydropteridin-6(5H)-one]: 1 to 5 µM.

With `CCN1C(=O)C2(CC2)N(CC)c2nc(NCc3cnn(Cc4ccc(F)cc4)c3)ncc21` [Compound 232, 5′,8′-diethyl-2′-(((1-(4-fluorobenzyl)-1H-pyrazol-4-yl)methyl)amino)-5′,8′-dihydro-6′H-spiro[cyclopropane-1,7′-pteridin]-6′-one], the IC50 under setting [1] is less than 0.3 µM. Same read-out and setting: the same measure for `Cc1nc(N[C@H]2C[C@H](Nc3cc(C(F)(F)F)ncn3)C2)nc2c1NC(=O)[C@H](C(C)C)N2C` [Compound 530, (S)-7-isopropyl-4,8-dimethyl-2-((trans-3-((6-(trifluoromethyl)pyrimidin-4-yl)amino)cyclobutyl)amino)-7,8-dihydropteridin-6(5H)-one]: not below 5 µM; for `Cc1nc(N[C@H]2C[C@@H](Cn3cc(F)cn3)C2)nc2c1NC(=O)[C@H](C)N2C` [Compound 279, (7S)-2-((cis-3-((4-fluoro-1H-pyrazol-1-yl)methyl)cyclobutyl)amino)-4,7,8-trimethyl-7,8-dihydropteridin-6(5H)-one]: 0.3 to 1 µM; for `Cc1nc(N[C@H]2C[C@H](OCc3ccc(F)c(F)c3)C2)nc2c1N(C)C(=O)[C@H](C)N2C` [Compound 266, (7S)-2-((trans-3-((3,4-difluorobenzyl)oxy)-cyclobutyl)amino)-4,5,7,8-tetramethyl-7,8-dihydropteridin-6(5H)-one]: 0.3 to 1 µM. Still for that read-out and setting: next, `[2H]C([2H])([2H])C([2H])([2H])N1C(=O)[C@H](C)N(C)c2nc(N[C@H]3C[C@H](Oc4cc(F)c(F)c(F)c4)C3)nc(C)c21` [Compound 328, (7S)-5-(ethyl-d5)-4,7,8-trimethyl-2-((trans-3-(3,4,5-trifluorophenoxy)-cyclobutyl)amino)-7,8-dihydropteridin-6(5H)-one]: less than 0.3 µM. Consider `Cc1nc(NCc2cnn(Cc3ccc(C(F)(F)F)cn3)c2)nc2c1NC(=O)[C@H](C)N2C` [Compound 200, (7S)-4,7,8-trimethyl-2-(((1-((5-(trifluoromethyl)pyridin-2-yl)methyl)-1H-pyrazol-4-yl)methyl)amino)-7,8-dihydropteridin-6(5H)-one], for which the IC50 under setting [1] is 0.3 to 1 µM.

As for `CCN1C(=O)[C@H](CCO)N(CC)c2nc(NCc3cnn(Cc4cc(F)c(F)c(F)c4)c3)ncc21` [Compound 37, (7S)-5,8-diethyl-7-(2-hydroxyethyl)-2-(((1-(3,4,5-trifluorobenzyl)-1H-pyrazol-4-yl)methyl)amino)-7,8-dihydropteridin-6(5H)-one], the 50% inhibitory concentration (IC50) under setting [1] is less than 0.3 µM. In the case of `Cc1nc(NCc2cnn(Cc3ccc(C(F)(F)F)nc3)c2)nc2c1NC(=O)[C@@H](C1CC1)N2C` [Compound I-1639], where the note is “R-isomer at C2 (corresponding to C2 S-isomer), 5 h”, the IC50 was in the range of 1 to 5 µM. As for `Cc1nc(NCc2cnn(Cc3ccc(C(C)(C)C)nc3)c2)nc2c1NC(=O)[C@H](C)N2C` [Compound 211, (7S)-2-(((1-((6-(tert-butyl)pyridin-3-yl)methyl)-1H-pyrazol-4-yl)methyl)amino)-4,7,8-trimethyl-7,8-dihydropteridin-6(5H)-one], the IC50 under setting [1] was 0.3 to 1 µM. On the same count and under the same terms, the same measure for `Cc1nc(N[C@H]2C[C@H](Oc3ccc(F)nc3)C2)nc2c1N(C)C(=O)[C@H](C)N2C` [Compound 358, (7S)-2-((trans 3-((6-fluoropyridin-3-yl)oxy)cyclobutyl)amino)-4,5,7,8-tetramethyl-7,8-dihydropteridin-6(5H)-one]: 1 to 5 µM. The same measure, in the same setting: next, `Cc1nn(Cc2ccc(F)cc2)cc1CNc1nc(C)c2c(n1)N(C)[C@@H](C)C(=O)N2` [Compound 73, (7S)-2-(((1-(4-fluorobenzyl)-3-methyl-1H-pyrazol-4-yl)methyl)amino)-4,7,8-trimethyl-7,8-dihydropteridin-6(5H)-one]: less than 0.3 µM; `Cc1nc(N[C@H]2C[C@@H](Nc3cccc(C(F)(F)F)n3)C2)nc2c1NC(=O)[C@H](C(C)C)N2C` [Compound 532, (S)-7-isopropyl-4,8-dimethyl-2-((cis-3-((6-(trifluoromethyl)pyridin-2-yl)amino)cyclobutyl)amino)-7,8-dihydropteridin-6(5H)-one]: 0.3 to 1 µM; `CC(C)c1ccccc1Cn1cc(CNc2ncc3c(n2)N(C)[C@@H](C)C(=O)N3)cn1` [Compound 79, (7S)-2-(((1-(2-isopropylbenzyl)-1H-pyrazol-4-yl)methyl)amino)-7,8-dimethyl-7,8-dihydropteridin-6(5H)-one]: less than 0.3 µM.

In the case of `Cc1nc(N[C@H]2C[C@@H](NC(=O)Nc3cc(F)c(F)c(F)c3)C2)nc2c1NC(=O)[C@H](C)N2C` [Compound 472, 1-(3,4,5-trifluorophenyl)-3-(cis-3-(((S)-4,7,8-trimethyl-6-oxo-5,6,7,8-tetrahydropteridin-2-yl)amino)cyclobutyl)urea], under setting [1], the IC50 is less than 0.3 µM. Still for that read-out and setting: next, `Cc1nc(N[C@H]2CC[C@@H](Oc3cc(F)c(F)c(F)c3)C2)nc2c1NC(=O)[C@H](C)N2C` (mixture of isomers) [Compound 259, (7S)-4,7,8-trimethyl-2-((cis-3-(3,4,5-trifluorophenoxy)cyclopentyl)amino)-7,8-dihydropteridin-6(5H)-one]: not below 5 µM; `Cc1nc(NCc2cnn(Cc3ccc(C(F)(F)F)nc3)c2)nc2c1NC(=O)C(C)(C)N2C` [Compound 238, 4,7,7,8-Tetramethyl-2-(((1-((6-(trifluoromethyl)pyridin-3-yl)methyl)-1H-pyrazol-4-yl)methyl)amino)-7,8-dihydropteridin-6(5H)-one]: less than 0.3 µM; `Cc1nc(NC2CN(S(=O)(=O)c3ccc(F)cc3)C2)nc2c1NC(=O)[C@H](C(C)C)N2C` [Compound 592, (7S)-2-((1-((4-fluorophenyl)sulfonyl)azetidin-3-yl)amino)-7-isopropyl-4,8-dimethyl-7,8-dihydropteridin-6(5H)-one]: not below 5 µM. For the compound `Cc1nc(NC2CC2COc2ccccc2)nc2c1NC(=O)[C@H](C)N2C` (stereo partly drawn) [Compound 278, (7S)-4,7,8-trimethyl-2-((2-(phenoxymethyl)cyclopropyl)-amino)-7,8-dihydropteridin-6(5H)-one], the half-maximal inhibitory concentration (IC50) under setting [1] lay in the range of 1 to 5 µM.
